Tests used:
[1] = target: Cyclin-dependent kinase 2/cyclin A (Homo sapiens, UniProt P24941); assay: Inhibition of CDK2/Cyclin A (unknown origin); type: protein-complex assay
[2] = target: Casein kinase 2 (Homo sapiens, UniProt P67870+P68400+P19784+Q8NEV1); assay: Inhibition of CK2 (unknown origin); type: protein assay
[3] = Metabolic stability in rat liver microsome assessed as microsomal clearance; type: ADME; conditions: microsomes
[4] = Metabolic stability in human liver microsome assessed as microsomal clearance; type: ADME; conditions: microsomes
[5] = Inhibition of MCM2 (unknown origin); set-up: species or system Homo sapiens
[6] = target: CDK3/Cyclin E (Homo sapiens, UniProt Q00526); assay: Inhibition of CDK3/cyclin E1 (unknown origin) by ADP-Glo kinase assay; type: protein-complex assay
Chain of CDK3/Cyclin E (P24864 whole entry): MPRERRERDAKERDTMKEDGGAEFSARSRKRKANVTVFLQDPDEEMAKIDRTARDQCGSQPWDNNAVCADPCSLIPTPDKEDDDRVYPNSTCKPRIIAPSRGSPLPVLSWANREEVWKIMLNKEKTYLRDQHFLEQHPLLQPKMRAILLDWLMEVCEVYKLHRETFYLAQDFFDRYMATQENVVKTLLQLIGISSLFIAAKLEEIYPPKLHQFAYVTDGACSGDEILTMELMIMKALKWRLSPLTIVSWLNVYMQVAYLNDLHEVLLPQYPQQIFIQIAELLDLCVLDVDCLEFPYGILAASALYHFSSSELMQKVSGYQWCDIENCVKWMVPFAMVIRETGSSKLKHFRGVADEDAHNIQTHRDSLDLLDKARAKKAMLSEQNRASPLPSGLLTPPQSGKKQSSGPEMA
Chain of CDK3/Cyclin E (Q00526 whole entry): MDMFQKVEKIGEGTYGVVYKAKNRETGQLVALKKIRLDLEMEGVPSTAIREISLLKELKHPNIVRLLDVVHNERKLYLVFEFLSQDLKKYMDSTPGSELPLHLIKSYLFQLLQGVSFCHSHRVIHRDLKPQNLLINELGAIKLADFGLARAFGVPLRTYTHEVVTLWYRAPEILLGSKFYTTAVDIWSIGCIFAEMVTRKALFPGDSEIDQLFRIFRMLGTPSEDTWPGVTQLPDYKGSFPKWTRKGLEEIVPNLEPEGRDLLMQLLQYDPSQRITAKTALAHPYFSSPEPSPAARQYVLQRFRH

[7] = target: T1, Cell division cycle 7-related protein kinase (Homo sapiens, UniProt O00311); assay: Inhibition of CDC7 (unknown origin)
T1 sequence (O00311 whole entry, the tested form may be a part): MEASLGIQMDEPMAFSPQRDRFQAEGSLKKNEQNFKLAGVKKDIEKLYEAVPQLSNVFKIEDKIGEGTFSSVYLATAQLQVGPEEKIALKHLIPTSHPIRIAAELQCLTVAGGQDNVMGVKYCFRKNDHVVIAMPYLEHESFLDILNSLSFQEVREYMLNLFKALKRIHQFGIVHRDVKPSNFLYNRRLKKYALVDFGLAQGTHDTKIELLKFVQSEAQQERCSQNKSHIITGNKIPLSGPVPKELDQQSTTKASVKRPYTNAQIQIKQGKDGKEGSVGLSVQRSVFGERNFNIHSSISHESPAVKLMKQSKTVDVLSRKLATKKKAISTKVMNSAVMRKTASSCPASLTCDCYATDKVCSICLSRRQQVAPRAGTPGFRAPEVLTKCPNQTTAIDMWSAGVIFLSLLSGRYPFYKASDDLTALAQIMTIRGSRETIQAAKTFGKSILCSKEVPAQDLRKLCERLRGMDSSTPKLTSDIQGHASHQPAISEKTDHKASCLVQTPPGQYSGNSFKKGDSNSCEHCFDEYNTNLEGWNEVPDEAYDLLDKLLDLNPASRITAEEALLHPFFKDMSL

[8] = target: T1, Cell division cycle 7-related protein kinase; assay: Inhibition of GST full length human CDC7 (1 to 574 residues) expressed in baculovirus expression system

NC(=O)c1cc(-c2ccncc2)[nH]c1-c1ccccc1
IC50 [1]: 1100 nM

O=c1[nH]cnc2c1oc1ccc(Br)cc12
IC50 [2]: 1500 nM

O=c1[nH]c([C@@H]2CCCN2)nc2c1oc1ccc(Cl)cc12
IC50 [2]: 215 nM

Nc1nccc(-n2cc(-c3cccnc3Cl)c3cnc(Cl)cc32)n1
CLH [3]: 102 µL/min/µg | CLH [4]: 30 µL/min/µg

Nc1nccc(-n2cc(-c3cccnc3Cl)c3cnccc32)n1
CLH [3]: 72 µL/min/µg | CLH [4]: 21 µL/min/µg

Nc1nccc(-n2ccc3ncccc32)n1
CLH [3]: 50 µL/min/µg | CLH [4]: 60 µL/min/µg

Nc1nccc(-n2ccc3cnccc32)n1
CLH [3]: 101 µL/min/µg | CLH [4]: 62 µL/min/µg

Cc1n[nH]cc1-c1cc2nc([C@@H]3CCCCN3)[nH]c(=O)c2s1
IC50 [5]: 36 nM | IC50 [6]: 6500 nM

N[C@H](c1nc2cc(-c3ccncc3F)sc2c(=O)[nH]1)C1CC1
IC50 [7]: < 1000 nM

Cn1nccc1-c1nc(C2CCOCC2)c(Cl)c(=O)[nH]1
IC50 [8]: 91.2 nM

O=c1[nH]c([C@@H]2CC3CCN2CC3)nc2c3c(sc12)-c1c[nH]nc1CCC3
IC50 [7]: 3020 nM

Cc1[nH]c(=O)c2sc(-c3cn[nH]c3)c3c2c1CCCO3
IC50 [7]: < 1000 nM
